Data from PubChem BioAssay AID250 (DTP/NCI, 2004).
Several values for one entry are separate records, joined by “and”; a condition that tells them apart may be missing. Equal entries are not always repeated. Toxic doses and inconclusive results are not listed.

Tested on: BDF1 mice, L1210 leukemia sc, survival T/C
Experiment: NCI In Vivo Anticancer Drug Screen. Data for tumor model L1210 Leukemia (subcutaneous) in B6D2F1 (BDF1) mice
Details: higher = longer survival
Summary of the method: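 Expressed as T/C: measurement in compound-treated, tumor-bearing mice relative to vehicle-treated control mice, based on survival or tumor size.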

## O=P1(N(CCCl)CCCl)NCCCO1 (centres undefined)
endpoint: mean survival time, dose: 70.0 mg/kg/injection, schedule: Q01DX001 (ip), vehicle: saline
  T/C: 161 % of control
endpoint: mean survival time, dose: 100.0 mg/kg/injection, schedule: Q08DX003 (sc), vehicle: saline
  T/C: 190 % of control
endpoint: mean survival time, dose: 140.0 mg/kg/injection, schedule: Q01DX001 (ip), vehicle: saline
  T/C: 180 % of control
endpoint: mean survival time, dose: 200.0 mg/kg/injection, schedule: Q01DX001 (ip), vehicle: saline
  T/C: 219 % of control
endpoint: mean survival time, dose: 200.0 mg/kg/injection, schedule: Q08DX003 (sc), vehicle: saline
  T/C: 221 % of control
endpoint: mean survival time, dose: 280.0 mg/kg/injection, schedule: Q01DX001 (ip), vehicle: saline
  T/C: 232 % of control
endpoint: mean survival time, dose: 400.0 mg/kg/injection, schedule: Q08DX003 (sc), vehicle: saline
  T/C: 171 % of control
endpoint: mean survival time, dose: 560.0 mg/kg/injection, schedule: Q01DX001 (ip), vehicle: saline
  T/C: 91 % of control
endpoint: median survival time, dose: 6.25 mg/kg/injection, schedule: Q01DX009 (ip), vehicle: saline
  T/C: 104 % of control
endpoint: median survival time, dose: 6.25 mg/kg/injection, schedule: Q01DX009 (sc), vehicle: saline
  T/C: 98 % of control and 101 % of control
endpoint: median survival time, dose: 8.4 mg/kg/injection, schedule: Q01DX Z (ip), vehicle: saline
  T/C: 100 % of control
endpoint: median survival time, dose: 10.8 mg/kg/injection, schedule: Q01DX001 (ip), vehicle: saline
  T/C: 150 % of control
endpoint: median survival time, dose: 12.5 mg/kg/injection, schedule: Q01DX009 (sc), vehicle: saline
  T/C: 107 % of control and 112 % of control
endpoint: median survival time, dose: 14.0 mg/kg/injection, schedule: Q01DX Z (ip), vehicle: saline
  T/C: 110 % of control and 117 % of control
endpoint: median survival time, dose: 14.0 mg/kg/injection, schedule: Q01DX Z (oral), vehicle: saline
  T/C: 104 % of control
endpoint: median survival time, dose: 14.0 mg/kg/injection, schedule: Q01DX Z (sc), vehicle: other
  T/C: 110 % of control
endpoint: median survival time, dose: 14.0 mg/kg/injection, schedule: Q#A X Z (sc), vehicle: saline
  T/C: 220 % of control
endpoint: median survival time, dose: 18.0 mg/kg/injection, schedule: Q01DX001 (ip), vehicle: saline
  T/C: 200 % of control
endpoint: median survival time, dose: 23.0 mg/kg/injection, schedule: Q01DX Z (ip), vehicle: saline
  T/C: 165 % of control
endpoint: median survival time, dose: 23.0 mg/kg/injection, schedule: Q01DX Z (oral), vehicle: saline
  T/C: 120 % of control
endpoint: median survival time, dose: 23.0 mg/kg/injection, schedule: Q01DX Z (sc), vehicle: other
  T/C: 195 % of control
endpoint: median survival time, dose: 23.0 mg/kg/injection, schedule: Q## X Z (sc), vehicle: saline
  T/C: 110 % of control
endpoint: median survival time, dose: 25.0 mg/kg/injection, schedule: Q01DX009 (ip), vehicle: saline
  T/C: 122 % of control
endpoint: median survival time, dose: 39.0 mg/kg/injection, schedule: Q01DX Z (ip), vehicle: saline
  T/C: 243 % of control
endpoint: median survival time, dose: 39.0 mg/kg/injection, schedule: Q01DX Z (oral), vehicle: saline
  T/C: 155 % of control and 215 % of control and 221 % of control
endpoint: median survival time, dose: 39.0 mg/kg/injection, schedule: Q02DX Z (sc), vehicle: saline
  T/C: 225 % of control
endpoint: median survival time, dose: 39.0 mg/kg/injection, schedule: Q07DX Z (sc), vehicle: saline
  T/C: 113 % of control and 115 % of control and 123 % of control
endpoint: median survival time, dose: 39.0 mg/kg/injection, schedule: Q## X Z (sc), vehicle: saline
  T/C: 150 % of control
endpoint: median survival time, dose: 39.0 mg/kg/injection, schedule: Q#A X Z (sc), vehicle: saline
  T/C: 230 % of control
endpoint: median survival time, dose: 50.0 mg/kg/injection, schedule: Q01DX009 (ip), vehicle: saline
  T/C: 162 % of control
endpoint: median survival time, dose: 50.0 mg/kg/injection, schedule: Q01DX009 (sc), vehicle: saline
  T/C: 163 % of control and 181 % of control
endpoint: median survival time, dose: 50.0 mg/kg/injection, schedule: Q08DX003 (sc), vehicle: saline
  T/C: 122 % of control
endpoint: median survival time, dose: 65.0 mg/kg/injection, schedule: Q01DX Z (ip), vehicle: saline
  T/C: 213 % of control
endpoint: median survival time, dose: 65.0 mg/kg/injection, schedule: Q01DX Z (oral), vehicle: saline
  T/C: 161 % of control and 182 % of control
endpoint: median survival time, dose: 65.0 mg/kg/injection, schedule: Q01DX Z (sc), vehicle: other
  T/C: 240 % of control
endpoint: median survival time, dose: 65.0 mg/kg/injection, schedule: Q07DX Z (sc), vehicle: saline
  T/C: 165 % of control and 175 % of control
endpoint: median survival time, dose: 65.0 mg/kg/injection, schedule: Q#A X Z (sc), vehicle: saline
  T/C: 150 % of control
endpoint: median survival time, dose: 69.0 mg/kg/injection, schedule: Q07DX003 (sc), vehicle: saline
  T/C: 188 % of control and 190 % of control
endpoint: median survival time, dose: 100.0 mg/kg/injection, schedule: Q07DX003 (sc), vehicle: saline
  T/C: 244 % of control
endpoint: median survival time, dose: 100.0 mg/kg/injection, schedule: Q07DX004 (sc), vehicle: saline
  T/C: 211 % of control and 213 % of control
endpoint: median survival time, dose: 100.0 mg/kg/injection, schedule: Q16DX002 (sc), vehicle: saline
  T/C: 157 % of control and 161 % of control (2×)
endpoint: median survival time, dose: 100.0 mg/kg/injection, schedule: Q## X002 (sc), vehicle: saline
  T/C: 155 % of control
endpoint: median survival time, dose: 108.0 mg/kg/injection, schedule: Q01DX001 (sc), vehicle: other
  T/C: 160 % of control
endpoint: median survival time, dose: 108.0 mg/kg/injection, schedule: Q01DX014 (sc), vehicle: saline
  T/C: 163 % of control
endpoint: median survival time, dose: 108.0 mg/kg/injection, schedule: Q01DX Z (ip), vehicle: saline
  T/C: 113 % of control
endpoint: median survival time, dose: 108.0 mg/kg/injection, schedule: Q01DX Z (oral), vehicle: saline
  T/C: 208 % of control and 240 % of control
endpoint: median survival time, dose: 108.0 mg/kg/injection, schedule: Q01DX Z (sc), vehicle: other
  T/C: 180 % of control
endpoint: median survival time, dose: 108.0 mg/kg/injection, schedule: Q07DX Z (sc), vehicle: saline
  T/C: 171 % of control
endpoint: median survival time, dose: 108.0 mg/kg/injection, schedule: Q08DX003 (ip), vehicle: saline
  T/C: 109 % of control
endpoint: median survival time, dose: 180.0 mg/kg/injection, schedule: Q01DX001 (sc), vehicle: other
  T/C: 191 % of control
endpoint: median survival time, dose: 180.0 mg/kg/injection, schedule: Q01DX014 (sc), vehicle: saline
  T/C: 217 % of control
endpoint: median survival time, dose: 180.0 mg/kg/injection, schedule: Q02DX Z (sc), vehicle: saline
  T/C: 170 % of control
endpoint: median survival time, dose: 180.0 mg/kg/injection, schedule: Q07DX Z (sc), vehicle: saline
  T/C: 195 % of control and 226 % of control
endpoint: median survival time, dose: 180.0 mg/kg/injection, schedule: Q08DX003 (ip), vehicle: saline
  T/C: 121 % of control
endpoint: median survival time, dose: 200.0 mg/kg/injection, schedule: Q01DX001 (ip), vehicle: saline
  T/C: 200 % of control and 205 % of control
endpoint: median survival time, dose: 200.0 mg/kg/injection, schedule: Q16DX002 (sc), vehicle: saline
  T/C: 183 % of control and 206 % of control (2×)
endpoint: median survival time, dose: 200.0 mg/kg/injection, schedule: Q## X002 (sc), vehicle: saline
  T/C: 180 % of control
endpoint: median survival time, dose: 256.0 mg/kg/injection, schedule: Q01DX001 (sc), vehicle: saline
  T/C: 213 % of control and 215 % of control
endpoint: median survival time, dose: 300.0 mg/kg/injection, schedule: Q01DX001 (ip), vehicle: saline
  T/C: 240 % of control and 242 % of control
endpoint: median survival time, dose: 300.0 mg/kg/injection, schedule: Q01DX001 (sc), vehicle: other
  T/C: 243 % of control
endpoint: median survival time, dose: 300.0 mg/kg/injection, schedule: Q01HX002 (ip), vehicle: saline
  T/C: 113 % of control
endpoint: median survival time, dose: 300.0 mg/kg/injection, schedule: Q07DX Z (sc), vehicle: saline
  T/C: 217 % of control and 219 % of control
endpoint: median survival time, dose: 300.0 mg/kg/injection, schedule: Q08DX003 (ip), vehicle: saline
  T/C: 113 % of control
endpoint: median survival time, dose: 300.0 mg/kg/injection, schedule: Q16DX002 (ip), vehicle: saline
  T/C: 115 % of control
endpoint: median survival time, dose: 320.0 mg/kg/injection, schedule: Q01DX001 (sc), vehicle: saline
  T/C: 235 % of control and 240 % of control
endpoint: median survival time, dose: 400.0 mg/kg/injection, schedule: Q07DX004 (sc), vehicle: saline
  T/C: 166 % of control
endpoint: median survival time, dose: 400.0 mg/kg/injection, schedule: Q16DX002 (sc), vehicle: saline
  T/C: 222 % of control and 239 % of control (2×)
endpoint: median survival time, dose: 400.0 mg/kg/injection, schedule: Q## X002 (sc), vehicle: saline
  T/C: 220 % of control
endpoint: median survival time, dose: 500.0 mg/kg/injection, schedule: Q01DX001 (sc), vehicle: other
  T/C: 217 % of control
